# Assay results as given in patent US20070190046A1, “Anti-abeta antibody” (Eli Lilly and Company, priority 2004, published 2007).
# Tested on: Aβ peptide naturally expressed by HEK 293 cells
# Test: Acid urea gel / western blot analysis of Aβ peptide in purified antibody from HEK 293 cell culture with γ-secretase inhibitor
# Format: cell-based, human
# Settings: for FL (Full length hAβ40) / T2 (N-terminal truncated hAβ40, #2): no-inhibitor control 70; for T1 (N-terminal truncated hAβ40, #1): no-inhibitor control 38; for Total hAβ40: no-inhibitor control 178
# Protocol: A γ-secretase inhibitor, [drawing 1] (WO 98/28268), is added to the HEK 293 cell culture in which an anti-Aβ antibody is being expressed to reduce the amount of Aβ peptide naturally expressed by cells. Cell culture samples for this example include a control culture with no inhibitor added, a culture in which 1 nM inhibitor is added at time=0 and every 24 hours thereafter for 5 days (for a 5 day transfection), and a culture in which 1 nM inhibitor is added at time=0. These samples are purified using a Protein A column as well as size exclusion chromatography. The samples are analyzed for Aβ peptide content by acid-urea gel separation and subsequent western blot analysis as detailed below.
# The following protocol describes a technique for formic acid denaturation of samples and subsequent electrophoresis through an acid-urea polyacrylamide matrix:
# • 1) Clean and assemble acrylamide gel plates for casting. For example, Hoeffer plates into a casting stand (16 cm×14 cm plates with 1.5 mm spacers). Clean plates thoroughly with detergent, rinse in distilled H2O(dH2O), rinse with acetone, and finally rinse with 100% EtOH. • 2) Mark plates at 10 cm (22% separating gel) and 11.75 cm (10% step gel). Making the Gel and Gel Concentrations • 1) Acrylamide (40% solution, such as pre-made Bio-Rad/cat#161-0148)
# • Add urea, acrylamide, glacial acetic acid (GAA), and dH2O into 50 mL conical tubes. Vortex briefly and incubate in a 55° C. water bath. Vortex every few minutes until the urea is completely in solution. Degas 22% and 10% solutions and place solutions on ice, leaving the 4% stacker in the water bath. Pouring the Gel (at Room Temperature) • 1) Add N,N,N′,N′-tetramethylethylenediamine (TEMED) to the 22% solution and gently invert several times to mix. Next add the 10% APS (ammonium persulfate) and invert several times. Using a 25 mL pipette, slowly pour solution between the plates until it reaches the 10 cm mark. • 2) Carefully add a 750 μL overlay of 5% GAA. Use a P1000 pipette to very slowly let the 5% GAA run down one side of the glass plates onto the 22% resolving gel. • 3) Allow to polymerize at room temperature for at least 1 hour. • 4) Add the TEMED and 10% APS to the 10%-acrylamide solution in the same manner as for the 22%. Remove the overlay and add the solution until reaching the second mark at 11.75 cm. Again, carefully pour a 750 μL overlay of 5% GAA as above. Allow the gel to polymerize for 30 minutes. • 5) Prior to adding the 4% stacker solution, place the gel stand in a 37° C. incubator for 15 minutes to warm gels. This aids in the wells polymerizing correctly. Degas the 4% stacker solution and keep at 55° C. Remove the overlay. Add the TEMED, invert several times, and then add the 10% APS. Quickly pour this solution and insert a clean-dry 12-well comb (or a 15-well comb). After pouring the stacker, place the stand back in the incubator for 15 minutes then remove. Allow to polymerize on the bench top. The stacker will take at least 1.5 hours to polymerize completely. • *Note: During the polymerization steps, air pockets may appear in the resolving gel. These pockets form due to the change in temperature of the gel during and after polymerization. […] Sample Preparation • Analysis upwards of 3 mg of protein in a single lane will achieve reasonable band results. Conditions for analyzing protein are as follows.
# Sample: • 30 μL of […] protein (maximum concentration of protein) • 80 μL formic acid (98%) (ICN cat#15162-90) • 20 μL Acid Loading Buffer (80% formic acid, 60% sucrose and 0.02% methyl green; • Make buffer by dissolving 6 g sucrose in ˜8 mL of ˜99% formic acid. Heat and agitate the mixture. After the sucrose has dissolved, the volume of the solution is adjusted to 10 mL with ˜99% formic acid. Add 2 μL of 1% methyl green solution.) • 1 μl β-Mercaptoethanol • *Note: Adjust volumes as needed. […]
# [1] = HEK 293 culture, 1 nM inhibitor added at time=0 only
# [2] = HEK 293 culture, 1 nM inhibitor at time=0 and every 24 hours for 5 days
smiles,measurement,setting,value
C[C@H](NC(=O)[C@@H](O)c1cc(F)cc(F)c1)C(=O)N[C@@H]1C(=O)N(C)c2ccccc2-c2ccccc21 [Inhibitor],FL (Full length hAβ40),"HEK 293 culture expressing anti-Aβ antibody, 1 nM inhibitor added at time=0 and every 24 hours for 5 days",4 pg/μg IgG
same,"T1 (N-terminal truncated hAβ40, #1)",[1],27 pg/μg IgG
same,FL (Full length hAβ40),[1],56 pg/μg IgG
same,"T2 (N-terminal truncated hAβ40, #2)",[1],52 pg/μg IgG
same,Total hAβ40,[1],135 pg/μg IgG
same,"T1 (N-terminal truncated hAβ40, #1)",[2],0 pg/μg IgG
same,"T2 (N-terminal truncated hAβ40, #2)",[2],3 pg/μg IgG
same,Total hAβ40,[2],7 pg/μg IgG
